Measured values published in ChEMBL document CHEMBL4420076, “Amylin and calcitonin receptor agonist” (2017).
Numbered stars: 1 amine (or outer) side, 2 acyl side, 3 side chain; on linkers, the order of the positions; unused ones are H or OH. Peptide text beside a SMILES is read from it. * marks the point of attachment. C20 diacid = O=C(O)CCCCCCCCCCCCCCCCCCC(=O)*; γGlu = O=C(O)[C@H](CCC(=O)[*:2])N[*:1]

How the values were obtained:
[1] = Solubility in 100 mM bistrispropane buffer at pH 6.0 incubated for 18 hrs by UPLC analysis; format: physicochemical
[2] = Solubility in 100 mM bistrispropane buffer at pH 8.0 incubated for 18 hrs by UPLC analysis; format: physicochemical
Calcitonin receptor [3] = target: T1, Calcitonin receptor (Homo sapiens, UniProt P30988); experiment: Agonist activity at human calcitonin receptor expressed in BHK570 cells assessed as increase in intracellular cAMP concentration incubated for 3 hrs in absence of albumin by CRE luciferase reporter gene assay; format: functional, cell-based
T1 sequence (P30988 whole entry): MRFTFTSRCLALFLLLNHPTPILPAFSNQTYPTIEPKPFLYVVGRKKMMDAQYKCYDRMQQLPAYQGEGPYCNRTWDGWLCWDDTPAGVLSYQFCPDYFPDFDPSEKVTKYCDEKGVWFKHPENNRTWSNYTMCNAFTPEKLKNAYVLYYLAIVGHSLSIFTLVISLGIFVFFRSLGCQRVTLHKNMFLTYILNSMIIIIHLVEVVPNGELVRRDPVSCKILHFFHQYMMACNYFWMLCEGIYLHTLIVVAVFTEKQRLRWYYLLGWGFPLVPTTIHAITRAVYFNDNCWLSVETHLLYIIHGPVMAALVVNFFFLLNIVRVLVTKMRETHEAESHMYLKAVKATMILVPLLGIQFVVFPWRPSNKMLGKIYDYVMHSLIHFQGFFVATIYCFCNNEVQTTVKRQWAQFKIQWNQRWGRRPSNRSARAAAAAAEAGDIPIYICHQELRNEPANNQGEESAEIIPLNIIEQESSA

[4] = Solubility in 100 mM glycylglycine buffer at pH 4.0 incubated for 18 hrs by UPLC analysis; format: physicochemical
[5] = target: T2, Amylin receptor AMY3; CALCR/RAMP3 (Homo sapiens, UniProt O60896+P30988); experiment: Agonist activity at human amylin receptor expressed in BHK570 cells co-expressing RAMP3 assessed as increase in intracellular cAMP concentration incubated for 3 hrs in presence of 10% FBS by CRE luciferase reporter gene assay; format: functional, cell-based
T2 sequence (P30988 whole entry): T1 sequence (P30988 whole entry)
T2 sequence (O60896 whole entry): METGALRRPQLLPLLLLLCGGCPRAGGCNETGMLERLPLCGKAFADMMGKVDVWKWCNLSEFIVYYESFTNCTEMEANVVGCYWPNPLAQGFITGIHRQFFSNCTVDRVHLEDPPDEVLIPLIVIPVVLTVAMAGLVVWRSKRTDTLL

[6] = Solubility in 100 mM glycylglycine buffer at pH 3.0 incubated for 18 hrs by UPLC analysis; format: physicochemical
[7] = Solubility in 100 mM bistrispropane buffer at pH 6.5 incubated for 18 hrs by UPLC analysis; format: physicochemical
[8] = target: T2, Amylin receptor AMY3; CALCR/RAMP3; experiment: Agonist activity at human amylin receptor expressed in BHK570 cells co-expressing RAMP3 assessed as increase in intracellular cAMP concentration incubated for 3 hrs in absence of albumin by CRE luciferase reporter gene assay; format: functional, cell-based
[9] = target: T2, Amylin receptor AMY3; CALCR/RAMP3; experiment: Displacement of [125I]-labeled rat amylin from human amylin receptor expressed in BHK tkts13 whole cells co-expressing RAMP3 incubated for 60 mins by scintillation proximity assay; format: cell-based
[10] = Solubility in 100 mM bistrispropane buffer at pH 7.0 incubated for 18 hrs by UPLC analysis; format: physicochemical
[11] = Solubility in 100 mM bistrispropane buffer at pH 7.5 incubated for 18 hrs by UPLC analysis; format: physicochemical
Calcitonin receptor [12] = target: T1, Calcitonin receptor; experiment: Agonist activity at human calcitonin receptor expressed in BHK570 cells assessed as increase in intracellular cAMP concentration incubated for 3 hrs in presence of 10% FBS by CRE luciferase reporter gene assay; format: functional, cell-based

CC(C)C[C@H](NC(=O)[C@H](C)NC(=O)[C@H](C)NC(=O)[C@@H](NC(=O)[C@H](CO)NC(=O)[C@H](CC(C)C)NC(=O)[C@H](CCC(=O)O)NC(=O)[C@H](CO)NC(=O)[C@H](C)NC(=O)CC[C@H](NC(=O)CCCCCCCCCCCCCCCCCCC(=O)O)C(=O)O)[C@@H](C)O)C(=O)NCC(=O)N[C@@H](CCCNC(=N)N)C(=O)N[C@@H](CC(C)C)C(=O)N[C@@H](CO)C(=O)N[C@@H](C)C(=O)N[C@@H](CCC(=O)O)C(=O)N[C@@H](CC(C)C)C(=O)N[C@@H](Cc1cnc[nH]1)C(=O)N[C@@H](CCC(=O)O)C(=O)N[C@@H](CC(C)C)C(=O)N[C@@H](CO)C(=O)N[C@H](C(=O)N[C@@H](Cc1ccc(O)cc1)C(=O)N1CCC[C@H]1C(=O)N[C@@H](CCCNC(=N)N)C(=O)N[C@H](C(=O)N[C@@H](CCC(=O)O)C(=O)N[C@H](C(=O)NCC(=O)N[C@@H](CO)C(=O)NCC(=O)N[C@@H](CO)C(=O)N[C@@H](Cc1ccc(O)cc1)C(N)=O)[C@@H](C)O)[C@@H](C)O)[C@@H](C)O ({C20 diacid-γGlu}-ASELSTAALGRLSAELHELSTYPRTETGSGSY-NH2)
solubility at 18 h [1]: ≥ 200 µM
solubility at 18 h [2]: ≥ 200 µM
EC50 (Calcitonin receptor [3]): 0.034 nM
solubility at 18 h [4]: ≥ 200 µM
EC50 [5]: 0.064 nM
solubility at 18 h [6]: ≥ 200 µM
solubility at 18 h [7]: ≥ 200 µM
EC50 [8]: 0.05 nM
IC50 [9]: 0.186 nM
solubility at 18 h [10]: ≥ 200 µM
solubility at 18 h [11]: ≥ 200 µM

CC(C)C[C@H](NC(=O)CNC(=O)[C@H](CO)NC(=O)[C@H](C)NC(=O)CC[C@H](NC(=O)CCCCCCCCCCCCCCCCCCC(=O)O)C(=O)O)C(=O)N[C@@H](CO)C(=O)N[C@H](C(=O)N[C@@H](C)C(=O)N[C@H](C(=O)N[C@@H](CC(C)C)C(=O)NCC(=O)N[C@@H](CCCNC(=N)N)C(=O)N[C@@H](CC(C)C)C(=O)N[C@@H](CO)C(=O)N[C@@H](CCC(N)=O)C(=O)N[C@@H](CCC(=O)O)C(=O)N[C@@H](CC(C)C)C(=O)N[C@@H](Cc1cnc[nH]1)C(=O)N[C@@H](CCC(=O)O)C(=O)N[C@@H](CC(C)C)C(=O)N[C@@H](CCC(N)=O)C(=O)N[C@H](C(=O)N[C@@H](Cc1ccc(O)cc1)C(=O)N1CCC[C@H]1C(=O)N[C@@H](CCCNC(=N)N)C(=O)N[C@H](C(=O)N[C@@H](CCC(=O)O)C(=O)N[C@H](C(=O)NCC(=O)N[C@@H](CO)C(=O)N[C@@H](C)C(=O)N[C@H](C(=O)N[C@@H](Cc1ccc(O)cc1)C(N)=O)[C@@H](C)O)[C@@H](C)O)[C@@H](C)O)[C@@H](C)O)C(C)C)[C@@H](C)O ({C20 diacid-γGlu}-ASGLSTAVLGRLSQELHELQTYPRTETGSATY-NH2)
solubility at 18 h [1]: ≥ 200 µM
solubility at 18 h [2]: ≥ 200 µM
EC50 (Calcitonin receptor [3]): 0.052 nM
solubility at 18 h [4]: ≥ 200 µM
EC50 [5]: 0.077 nM
solubility at 18 h [6]: ≥ 200 µM
solubility at 18 h [7]: ≥ 200 µM
IC50 [9]: 0.244 nM
solubility at 18 h [10]: ≥ 200 µM
solubility at 18 h [11]: ≥ 200 µM
EC50 (Calcitonin receptor [12]): 0.037 nM

CC(C)C[C@H](NC(=O)CC[C@H](NC(=O)CCCCCCCCCCCCCCCCCCC(=O)O)C(=O)O)C(=O)N[C@@H](CO)C(=O)N[C@@H](CCC(N)=O)C(=O)N[C@@H](CC(C)C)C(=O)N[C@@H](CO)C(=O)N[C@H](C(=O)N[C@@H](CC(C)C)C(=O)N[C@H](C(=O)N[C@@H](CC(C)C)C(=O)NCC(=O)N[C@@H](CCCNC(=N)N)C(=O)N[C@@H](CC(C)C)C(=O)N[C@@H](CO)C(=O)N[C@@H](CCC(N)=O)C(=O)N[C@@H](CCCNC(=N)N)C(=O)N[C@@H](CC(C)C)C(=O)N[C@@H](Cc1cnc[nH]1)C(=O)N[C@@H](CCCNC(=N)N)C(=O)N[C@@H](CC(C)C)C(=O)N[C@@H](CCC(N)=O)C(=O)N[C@H](C(=O)N[C@@H](Cc1ccc(O)cc1)C(=O)N1CCC[C@H]1C(=O)N[C@@H](CCCNC(=N)N)C(=O)N[C@H](C(=O)N[C@@H](CCC(N)=O)C(=O)N[C@H](C(=O)NCC(=O)N[C@@H](CO)C(=O)N[C@@H](CCC(N)=O)C(=O)N[C@H](C(=O)N[C@@H](Cc1ccc(O)cc1)C(N)=O)[C@@H](C)O)[C@@H](C)O)[C@@H](C)O)[C@@H](C)O)C(C)C)[C@@H](C)O ({C20 diacid-γGlu}-LSQLSTLVLGRLSQRLHRLQTYPRTQTGSQTY-NH2)
EC50 (Calcitonin receptor [3]): 0.012 nM
EC50 [5]: 0.044 nM
EC50 [8]: 0.01 nM
IC50 [9]: 10.7 nM
EC50 (Calcitonin receptor [12]): 0.05 nM
